According to PubChem BioAssay (NCI):
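All cell lines were grown in 96-well plates and treated with compound for 48 hours. At the GI50, growth is halved. At the TGI there is no net growth.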

What was measured:
Experiment in all cases: inhibition of tumour cell growth, NCI panel, 48 h
786-0 renal = tested on: 786-0 renal
A498 renal = tested on: A498 renal
KM12 colon = tested on: KM12 colon
MALME-3M melanoma = tested on: MALME-3M melanoma
OVCAR-8 ovarian = tested on: OVCAR-8 ovarian
SF-268 CNS = tested on: SF-268 CNS
UACC-62 melanoma = tested on: UACC-62 melanoma
NCI-H226 lung = tested on: NCI-H226 lung
HS 578T breast = tested on: HS 578T breast
T-47D breast = tested on: T-47D breast

SMILES	TGI (786-0 renal)	TGI (A498 renal)	TGI (KM12 colon)	TGI (MALME-3M melanoma)	TGI (OVCAR-8 ovarian)	TGI (SF-268 CNS)	TGI (UACC-62 melanoma)	GI50 (786-0 renal)	GI50 (A498 renal)	GI50 (KM12 colon)	GI50 (MALME-3M melanoma)	GI50 (NCI-H226 lung)	TGI (NCI-H226 lung)	GI50 (OVCAR-8 ovarian)	GI50 (SF-268 CNS)	GI50 (UACC-62 melanoma)	TGI (HS 578T breast)	TGI (T-47D breast)	GI50 (HS 578T breast)	GI50 (T-47D breast)
CC(=O)OC1C(CCl)OC(N=[N+]=[N-])C(OC(C)=O)C1OC(C)=O (centres undefined)	> 100 µM	> 100 µM	> 100 µM	> 100 µM	> 100 µM	> 100 µM	> 100 µM													
CCC[CH2][Sn]([CH2]CCC)([O]C(=O)c1nccnc1N)[O]C(=O)c1nccnc1N	1.91 µM	2.07 µM	2.74 µM	2.04 µM	2.45 µM	1.97 µM	2.16 µM	0.652 µM	0.819 µM	1.42 µM	0.57 µM	1.33 µM	2.63 µM	1.21 µM	0.64 µM	0.998 µM				
O=C(CCCc1ccccn1)c1ccccc1	> 100 µM	> 100 µM		> 100 µM	> 100 µM	> 100 µM	> 100 µM						> 100 µM				> 100 µM	> 100 µM		
CC1=C(c2cc(C(=O)Nc3ccc(Cl)c(Cl)c3)nc(N)n2)Sc2ccccc2N1	> 100 µM	> 100 µM	> 100 µM	> 100 µM	> 100 µM	> 100 µM	> 100 µM						> 100 µM							
NCC1OC(OC2C(CO)OC(OC3C(O)C(N)CC(N)C3OC3OC(CO)C(O)C(O)C3N)C2O)C(N)C(O)C1O (centres undefined)	> 50 mg/L		> 50 mg/L		> 50 mg/L	> 50 mg/L	> 50 mg/L	> 50 mg/L		> 50 mg/L		> 50 mg/L	> 50 mg/L	> 50 mg/L	> 50 mg/L	> 50 mg/L	> 50 mg/L		> 50 mg/L	
CCOc1ccc(N=Nc2ccc3oc(=O)c(C(=O)Nc4ccc(OC)cc4)cc3c2)cc1	93.9 µM	> 100 µM	> 100 µM	> 100 µM	67.6 µM	78.4 µM	93.1 µM													
Cc1cc(C)cc(Sc2c([N+](=O)[O-])ncn2C)c1	76.8 µM	77.1 µM	53.8 µM	25.3 µM	29.7 µM	33.9 µM	29.8 µM						22 µM							
CC[O-].Cc1ccc2cccc([O-])c2n1.Cc1ccc2cccc([O-])c2n1.Cc1ccc2cccc([O-])c2n1.[Ti+4]	> 57.9 µM	> 100 µM	74.8 µM	> 66.3 µM	47.1 µM	> 100 µM	> 52.2 µM	28.9 µM	> 63.2 µM	20.9 µM	> 46 µM	> 59.6 µM	> 100 µM	12.4 µM	> 83.5 µM	> 35.3 µM				
c1ccc(-c2nn(-c3ccccc3)[n+](-c3cccc4ccccc34)n2)cc1	29.3 µM	33.8 µM	11.3 µM	1.13 µM	54.5 µM	20.5 µM	3.59 µM	5.1 µM	2.91 µM	0.701 µM	0.333 µM			1.85 µM	2.04 µM	1.14 µM	> 100 µM	17.4 µM	1.77 µM	0.825 µM
CC(C)(C)[Si](C)(C)O/N=C\c1ccc(O[Si](C)(C)C(C)(C)C)cc1	> 100 µM	> 100 µM	> 100 µM	> 100 µM	> 100 µM	> 100 µM	> 100 µM													
O=C(c1cccs1)c1c(C(F)(F)F)n([O-])c2ccc(F)cc2[n+]1=O	2.74 µM	4.08 µM	0.35 µM	2.25 µM	1.34 µM		2.81 µM	1.32 µM	1.95 µM	0.163 µM	0.669 µM	1.76 µM	3.39 µM	0.528 µM		1.41 µM	6.71 µM	3.23 µM	1.67 µM	0.69 µM
C[C@H]1CC(=O)C2=CCCC3(SCCCS3)[C@@H]2[C@H]1CO	> 100 µM	> 100 µM	> 100 µM	> 100 µM	> 100 µM	> 100 µM	> 100 µM						> 100 µM							
NC(=O)C(NC=O)c1ccccc1 (centres undefined)	> 100 µM		> 100 µM		> 100 µM	> 100 µM	> 100 µM										> 100 µM	> 100 µM		
CN1c2ccccc2S(=O)(=O)n2c(COc3ccc(Cl)cc3)nnc21	> 100 µM	> 100 µM	> 100 µM		> 100 µM	> 100 µM	> 100 µM						> 100 µM				> 100 µM	> 100 µM		
CN(c1ccccc1)C1C(=O)N(c2ccccc2)C1/C=C/c1ccccc1 (centres undefined)	> 100 µM	> 100 µM	> 100 µM	> 100 µM	> 100 µM	> 100 µM	> 100 µM						> 100 µM							
C=C1Oc2nc3ccccc3c(=O)n2C1(C)C	> 100 µM	> 100 µM	> 10 µM	> 100 µM	> 100 µM	> 100 µM	> 100 µM						> 100 µM							
Cc1cc(C(=O)N2CCN(Cc3ccccc3)CC2)c(C)o1	> 100 µM	> 100 µM	> 100 µM		> 100 µM	> 100 µM	> 100 µM													
O=C(NNC(=O)c1ccncc1)c1ccncc1	> 100 µM	> 100 µM	> 100 µM	> 100 µM	> 100 µM	> 100 µM	> 100 µM										> 100 µM	> 100 µM		
COc1ccc(/C=C/c2cc(N3CCOCC3)c3cc(F)c(F)cc3n2)cc1OC	3.8 µM	4.63 µM	13.7 µM		3.23 µM	16.5 µM	2.24 µM	0.6 µM	1.23 µM	1.24 µM		1.1 µM	4.82 µM	0.55 µM	0.775 µM	0.436 µM	28.8 µM	5.69 µM	2.37 µM	0.449 µM
C=C(CS(=O)(=O)c1ccccc1)[P+](c1ccccc1)(c1ccccc1)c1ccccc1	47.3 µM	> 100 µM	29 µM	38.3 µM	74.1 µM	29.6 µM	56.9 µM						36.7 µM							
